Test results published in patent EP3442966B1, “NOVEL N-[(PYRIMIDINYLAMINO)PROPANYL]- AND N-[(PYRIDINYLAMINO)PROPANYL]ARYLCARBOXAMIDES” (Boehringer Ingelheim International GmbH, priority 2016, dated 2017).
Like-named read-outs stand apart in the source and are kept apart here.

Columns and labels:
[1] = molecular target: T1, OX2R (Homo sapiens, UniProt O43614); settings: WO2016/034882 Table 2 (Method A), cited from earlier work; for IC50: conversion of pIC50
T1 sequence (O43614 1-444): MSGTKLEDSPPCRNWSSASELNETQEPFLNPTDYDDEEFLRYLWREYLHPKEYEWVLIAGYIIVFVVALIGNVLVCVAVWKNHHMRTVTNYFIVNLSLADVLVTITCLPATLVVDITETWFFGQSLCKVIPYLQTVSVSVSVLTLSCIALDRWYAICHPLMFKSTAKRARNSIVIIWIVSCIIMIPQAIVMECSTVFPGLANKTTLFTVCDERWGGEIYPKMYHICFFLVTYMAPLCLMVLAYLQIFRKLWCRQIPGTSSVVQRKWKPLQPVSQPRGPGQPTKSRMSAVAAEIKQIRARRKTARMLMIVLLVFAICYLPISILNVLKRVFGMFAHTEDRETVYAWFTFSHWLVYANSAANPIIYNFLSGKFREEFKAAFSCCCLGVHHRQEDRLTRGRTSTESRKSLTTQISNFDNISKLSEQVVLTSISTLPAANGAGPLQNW

[2] = molecular target: T1, OX2R; settings: WO2016/034882 Table 3 (Method B), cited from earlier work; for IC50: conversion of pIC50
[3] = molecular target: T2, human Orexin 1 receptor (Homo sapiens, UniProt O43613); experiment: Assay A: in vitro testing of OX1R potency, OX1R IP1 (HTRF) in CHO-K1/hOx1 cells; format: cell-based
T2 construct: stably expressing the full-length human Orexin 1 receptor; expressed in transfected cells; host or cells: CHO-K1 (CHO-K1/hOx1), co-expressing the aequorin photoprotein
T2 sequence (O43613 1-425): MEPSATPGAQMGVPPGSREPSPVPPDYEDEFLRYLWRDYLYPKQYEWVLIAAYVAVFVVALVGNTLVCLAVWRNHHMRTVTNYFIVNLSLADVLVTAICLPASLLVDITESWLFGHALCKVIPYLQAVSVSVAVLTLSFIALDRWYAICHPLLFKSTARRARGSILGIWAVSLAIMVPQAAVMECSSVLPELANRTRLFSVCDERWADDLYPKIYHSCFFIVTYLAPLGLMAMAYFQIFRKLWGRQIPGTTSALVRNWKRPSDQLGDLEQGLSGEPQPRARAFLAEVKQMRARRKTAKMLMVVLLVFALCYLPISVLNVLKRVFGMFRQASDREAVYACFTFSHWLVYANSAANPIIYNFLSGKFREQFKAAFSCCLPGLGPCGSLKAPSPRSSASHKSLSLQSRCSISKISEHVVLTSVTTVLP
Source text: Activation of the orexin receptors expressed in cell lines results in an increase in intracellular IP3 concentration. IP1, a downstream metabolite of IP3, accumulates in cells following receptor activation and is stable in the presence of LiCI. Using Homogeneous Time-Resolved Fluorescence technology with Lumi4-Tb cryptate (commercially available from Cisbio Bioassay) and a suitable fluorescence plate reader. […] This technique is used to characterize pharmacological modification of the orexin receptors.
IP1 measurements are performed in CHO-K1 cells stably expressing the full-length human Orexin 1 receptor and the aequorin photoprotein. Cells are cultivated in Ham's nutrient mixture F12 medium with 10% fetal calf serum, in a 37°C, 95% humidity and 5% CO2 incubator. The CHO-K1/hOx1 cell mass is expanded to larger cell numbers. The cells are obtained as frozen cells in cryo-vials and stored until use at -150°C.
In preparation for the assay, 24 hours before the assay, the cells are thawed at 37°C and immediately diluted with cell culture medium. After centrifugation, the cell pellet is re-suspended in medium and then distributed into the assay plates with a density of 10000 cells/25 µL per well. The plates are incubated for one hour at room temperature to reduce edge effects before they are incubated for 24 hours at 37°C/5% CO2. Compounds are prepared by an 8-point serial dilution in DMSO and a final dilution step into assay buffer (HBSS with 20 mM HEPES, 0.1% BSA and 50 mM LiCl, pH 7.4) to ensure a final DMSO concentration of 1% in the assay.
On the day of the assay, cells in the plate are washed twice with 60 µL assay buffer (20 µL buffer remained in the wells after washing), followed by adding 5 µL per well of compounds diluted in assay buffer. After 15 minutes of incubation at room temperature 5 µL per well of Orexin A peptide (final concentration: 0.5 nM, and/or 50 nM for selected compounds) dissolved in assay buffer is added to the assay plate. The assay plate is incubated for 60 minutes at 37°C. Then 5 µL per well of Anti-IP1-Cryptate Tb solution and 5 µL per well of IP1-d2 dilution are added and the plate is incubated for a further 60 minutes light protected at room temperature.
8-point four parametric non-linear curve fitting and determination of IC50 values and Hill slopes is performed using a regular analysis software e.g. AssayExplorer (Accelrys).

[4] = molecular target: T3, human orexin 2 receptor (Homo sapiens, UniProt O43614); experiment: Assay B: in vitro testing of OX2R potency, OX2R IP1 (HTRF) in CHO-K1/hOx2 cells; format: cell-based; settings: 0.5 nM Orexin A concentration
T3 construct: stably expressing the full-length human orexin 2 receptor; expressed in transfected cells; host or cells: CHO-K1 (CHO-K1/hOx2), co-expressing the aequorin photoprotein
T3 sequence (O43614 1-444): T1 sequence (O43614 1-444)

[5] = molecular target: T4, OX1R (Homo sapiens, UniProt O43613); experiment: OX1R assay of WO2016/034882, Table 3 (Method B); format: cell-based; settings: ratio from WO2016/034882 Table 3 (Method B) values
T4 sequence (O43613 1-425): T2 sequence (O43613 1-425)

[6] = molecular target: T4, OX1R; settings: data as described in WO03/051872 (page 16-18); given as a range; cited from earlier work
[7] = molecular target: T1, OX2R; settings: data as described in WO03/051872 (page 16-18); given as a range; cited from earlier work
[8] = selectivity ratio, OX1R Kb at 50 nM Orexin A, OX2R Kb at 0.5 nM Orexin A

Row | Compound | OX2R Kb / OX1R Kb [3, 8] | further results
1 | CC[C@@H](CNc1ccc(Cl)cn1)N(C)C(=O)c1cc(C)ccc1-n1nccn1 [Ex 1 in WO2016/ 034882] | – | IC50 [1]: 1260 nM
2 | CC[C@@H](CNc1ncc(C(F)(F)F)cn1)N(C)C(=O)c1cc(Cl)ccc1-n1nccn1 [Ex 39 in WO2016/ 034882] | – | IC50 [2]: 1580 nM; OX2R pIC50 [1]: < 5.0; IC50 [1]: < 10000 nM
3 | CC[C@@H](CNc1ccc(C(F)(F)F)cn1)N(CC)C(=O)c1nc(C)ccc1-n1nccn1 [Ex 71 in WO2016/ 034882] | – | OX2R pIC50 [2]: 6.6; OX2R Kb / OX1R Kb [3]: 905
4 | CC[C@@H](CNc1ncc(C(F)(F)F)cn1)N(CC)C(=O)c1nc(C)ccc1-n1nccn1 [Ex 73 in WO2016/ 034882] | – | OX2R pIC50 [2]: < 6.0; IC50 [2]: > 1000 nM
5 | CC[C@@H](CNc1ncc(C(F)(F)F)cn1)N(C)C(=O)c1nc(C)ccc1-c1ncccn1 [Ex 84 in WO2016/ 034882] | – | Kb [4]: 229 nM
6 | CC[C@@H](CNc1ncc(C(F)(F)F)cn1)N(C)C(=O)c1c(F)cccc1-n1nccn1 [Ex 91 in WO2016/ 034882] | – | OX2R pIC50 [2]: < 5.1; OX2R IC50 / OX1R IC50 [5]: Table 3: 318; Kb [4]: 313 nM
7 | CCN(C(=O)c1c(-n2nccn2)ccc(C)c1F)[C@@H](C)CNc1ncc(C(F)(F)F)cn1 [Example 1] | 529 | –
8 | CCN(C(=O)c1cc(C)ccc1-n1nccn1)[C@@H](C)CNc1ncc(C(F)(F)F)cn1 [Example 2] | 379 | –
9 | CCN(C(=O)c1cc(OC)ccc1-n1nccn1)[C@@H](C)CNc1ncc(C(F)(F)F)cn1 [Example 4] | 736 | –
10 | CCN(C(=O)c1ccc(C)cc1-n1nccn1)[C@@H](C)CNc1ncc(C(F)(F)F)cn1 [Example 5] | 1783 | –
11 | Cc1nc(C(=O)N(C)CCNc2ncc(Br)cn2)c(-c2ccc(F)cc2)s1 [Example 6 in WO03/051872] | – | OX1R pKb [6]: 6.4 to 7.4; OX2R pKb [7]: <6.6 to 7.4
12 | CCN(C(=O)c1nc(C)sc1-c1ccccc1)[C@@H](C)CNc1ncc(C(F)(F)F)cn1 [Example 6] | 527 | –
13 | CCN(C(=O)c1ccc(Cl)cc1-n1nccn1)[C@@H](C)CNc1ncc(C(F)(F)F)cn1 [Example 7] | 922 | –
14 | CCN(C(=O)c1nc(C)sc1-c1ccc(F)cc1)[C@@H](C)CNc1ncc(C(F)(F)F)cn1 [Example 8] | 367 | –
15 | CCN(C(=O)c1cc(C)ccc1-n1nccn1)[C@@H](C)CNc1ccc(Cl)cn1 [Example 10] | 403 | –
16 | CCN(C(=O)c1cccc(F)c1-c1ncccn1)[C@@H](C)CNc1ccc(C(F)(F)F)cn1 [Example 11] | 212 | –
17 | CCN(C(=O)c1cccc(F)c1-c1ncccn1)[C@@H](C)CNc1ccc(F)c(C(F)(F)F)n1 [Example 12] | 216 | –
18 | CCN(C(=O)c1cc(F)ccc1-c1ncccn1)[C@@H](C)CNc1ncc(C(F)(F)F)cc1F [Example 13] | 438 | –
19 | CCN(C(=O)c1ccc(C)c(C)c1-n1nccn1)[C@@H](C)CNc1ccc(Cl)cn1 [Example 14] | 1018 | –
20 | CCN(C(=O)c1cccc(F)c1-n1nccn1)[C@@H](C)CNc1ccc(C(F)(F)F)cn1 [Example 15] | 880 | –
21 | CCN(C(=O)c1cccc(F)c1-n1nccn1)[C@@H](C)CNc1ncc(C(F)(F)F)cc1F [Example 16] | 560 | –
22 | CCN(C(=O)c1cccc(F)c1-n1nccn1)[C@@H](C)CNc1ccc(Cl)cn1 [Example 17] | 268 | –
23 | CCN(C(=O)c1cccc(F)c1-n1nccn1)[C@@H](C)CNc1ccc(F)c(C(F)(F)F)n1 [Example 18] | 209 | –
24 | CCN(C(=O)c1nccc(C(F)(F)F)c1-c1ccn(C)n1)[C@@H](C)COc1ccc(C(F)(F)F)cn1 [Example 19] | 230 | –
25 | CCN(C(=O)c1ccc(OC)cc1-n1nccn1)[C@@H](C)CNc1ncc(C(F)(F)F)cn1 [Example 20] | 1264 | –
